Measured values reported in publication PMC6099102, “Effect of the Nature of Donor Atoms on the Thermodynamic, Kinetic and Relaxation Properties of Mn(II) Complexes Formed With Some Trisubstituted 12-Membered Macrocyclic Ligands” (Frontiers in Chemistry, 2018).
Where two headings read alike, the source gives them in different places. Marks after values point to notes of the source that are not given here.

How the values were obtained:
[1] = Protonation constants of the ligands by pH-potentiometric titration; format: physicochemical; details: for Σ log K2H: log K1H + log K2H
Method: (§1) The concentration of the ligand solutions was determined by pH-potentiometric titration in the presence and absence of an excess (5–10 fold) of MnCl2. For determining the protonation constants of the investigated ligands, pH-potentiometric titrations were made by means of 0.2 M standardized NaOH in 2 and 3 mM ligand solutions in the pH-range of 1.75–11.85. All equilibrium measurements were performed at a constant 0.15 M NaCl ionic strength at 25 °C. The protonation and the stability constants of the Mn(II) complexes were determined by pH-potentiometric titrations (DOTP, DO3A, PCTA, ODO3A, DO3P) while owing to the slow formation rates of Mn(II) complexes formed with amide type ligands, the stability constants of DOTAM, DOTMA, DO3AM^H, PC3AM^H, PC3AM^Gly, PC3AM^Pip complexes were determined by out-of-cell pH-potentiomertry in combination with ^1H relaxometry. The metal-to-ligand concentration ratio in the solutions was 1:1. For the calculation of protonation constants of the ligands and the log KMnL and log KMnLHi values of the complexes, mL–pH data pairs (50–180), obtained in the pH range of 1.75–11.85 or r1obs-pH data pairs (10–15 batch samples) obtained in the pH range of 2–4.5 were used (the samples were equilibrated for 4–7 days). The equilibrium constants characterizing the deprotonation that occurs at basic pH were determined from the data obtained via direct pH-potentiometric titrations performed on the pre-formed complexes.
(§2) The pH-potentiometric titrations were carried out with a Methrohm 888 Titrando titration workstation using a Metrohm-6.0233.100 combined electrode. The samples (6.00 mL) were thermostated at 25 °C. The samples were stirred and kept under inert gas (N2) to avoid the effect of CO2. KH-phthalate (pH = 4.005) and borax (pH = 9.177) buffers were used for the pH-calibration. The method proposed by Irving et al. was used for the calculation of H^+ concentrations from the measured pH values (Irving et al., [1967]). A 0.01 M HCl (I = 0.15 M set with NaCl) solution was titrated with standardized NaOH solution of known concentration (approx. 0.2 M). The correction factor obtained as difference of calculated pH and measured pH values was used to calculate the [H^+] in the samples. The ionic product of water was determined from the same titrations (HCl/NaOH) from the data collected in the pH range of 11.20–11.85.
The protonation and complexation equilibria of the macrocyclic ligands and their Mn(II) complexes have been studied by pH-potentiometric and relaxometric methods in the presence of 0.15 M NaCl whose ionic strength mimics the physiological conditions. The protonation constants of the ligands were evaluated by fitting the pH-V(mL) base data pairs collected in the pH-potentiometric titrations. The protonation equilibria of the ligands can be described by Equation (2). (a comparison of previously published log K^H data available in the Supplementary Material) together with the constants of H4DOTA, cis- and trans-H2DO2A derivatives given for comparison. (2) KiH=[HiL]/[Hi-1L][H^+],i=1,2,…

[2] = Stability and protonation constants and pMn of the Mn(II) complexes (pH-potentiometry and/or 1H relaxometry); format: physicochemical; details: I = 0.15 M NaCl, 25 °C; for pMn: calculated at pH = 7.4, cM = cL = 10^−5 M; for log KML: stability constant of the Mn(II) complex; for log KMLH: protonation constant of the Mn(II) complex; for log KMHLH: second protonation constant of the Mn(II) complex; for log KMH2LH: third protonation constant of the Mn(II) complex; for log KMLOH: ternary hydroxido complex of Mn(II)
Method: as §1, §2
The relaxometric data were collected using a Bruker Minispec MQ20 NMR relaxometer. […] A datapoint plotted on figures represents an average of 5–6 T1 measurements (Figures S3–S9 in Supplementary Material). The data were fitted by using the molar r1p relaxivity value of the MnCl2 ([…] at 0.49 T and 25 °C). The equilibrium constants were calculated using the PSEQUAD program (Zékány and Nagypál, [1985]).
In order to gain information on the thermodynamic stability of the Mn(II) complexes, samples containing the metal and ligand in 1 to 1 molar ratio were studied by pH potentiometry or ^1H-relaxometry and in some cases by a combination of the two methods. The titration data were fitted by assuming the existence of [M(L)] and some protonated species ([M(HiL)]) at lower pH values. In some cases to fit the data obtained at higher pH, the formation of ternary hydroxido complexes ([M(L)(OH)]) were also included in the equilibrium model. The stability constants (KML) and the various protonation forms (KMHiL) of ML metal chelates are defined by Equations (3)–(5). However, a comparison of the stabilities of different complexes solely on the basic of their stability constants might be misleading because of the differences in ligand basicities. […] The pMn value accounts for the effect of proton competition (ligand basicity and complex protonation) on the stability constant essentially offering the same information as the conditional stability constant. Higher pMn values indicate a higher chelate stability at specified conditions. […]

[3] = I = 0.1 M KCl, ref Aime et al., [2011], cited from earlier work
[4] = ref Tircsó and Woods (in preparation), cited from earlier work
[5] = Dissociation kinetics of the Mn(II) complexes (acid catalyzed dissociation, metal or ligand exchange reactions); format: physicochemical; details: replacement of >NH in DO3A by etheric oxygen
Method: The dissociation reactions were followed by UV-vis spectrophotometry at 269 nm for the pyclen derivatives or at 300 nm for other complexes in the pH range of 3.6–5.0 for the exchange reactions with Cu(II) and up to pH = 6.0 when Zn(II) was used as a ligand scavenger. The acid catalyzed dissociation reactions were performed in the HCl concentration range of 0.05–1.0 M. The concentration of the complexes in the samples was 0.25 mM, while the concentration of the exchanging metal ion in the metal initiated transchelation reactions was 10–40 times higher to ensure pseudo-first-order conditions. Relaxometry was used to follow the transchelation reactions of [Mn(DOTAM)]^2+, [Mn(DO3AM^H)]^2+, [Mn(DO3A)]^−, [Mn(PCTA)]^− and [Mn(ODO3A)]^− with Cu(II)/Zn(II) ions in the pH range of 3.6–5.5 (Figures S17–S19 in Supplementary Material). The concentration of the complexes in these samples was set to 1.0–2.0 mM to achieve relatively large change during the dissociation reaction. […] The temperature was maintained at 25 °C and the ionic strength of the solutions was kept constant at 0.15 M with NaCl. N,N′-dimethyl- (DMP) and N-methyl-piperazine (NMP) buffers (log K2H = 4.18 and 4.90 at 25 °C and I = 0.15 M NaCl, respectively) were used at 0.05 M concentration to keep the pH constant. The pseudo-first-order rate constants (kobs) were calculated by fitting the absorbance or relaxivity-time data pairs to Equation (1) (1) Xt=(X0-Xe)e^-kobst+Xe where Xt, X0, and Xe are the absorbance or relaxivity at time t, at the start and at equilibrium, respectively. The calculations were performed with the computer program Micromath Scientist, version 2.0 (Salt Lake City, UT, USA) using a standard least-squares procedure.
The kinetic inertness of the Mn(II) complexes is the other important parameter for the complexes considered for use in vivo. The inertness of Mn(II) complexes formed with trisubstituted 12-memberd macrocyclic ligands were characterized either by studying the rates of acid catalyzed dissociation or by studying transmetallation reactions occurring between the complexes and a suitable exchanging metal ion such as Zn(II) or Cu(II). The demetallation reactions of labile complexes were performed at high pH by following the ligand exchange reactions with trans-CDTA and DTPA ligands. The demetallation reactions were studied in the presence of a large Cu(II)/Zn(II)/trans-CDTA/DTPA excess or by using high acid concentration in order to ensure pseudo-first-order conditions (Equation 6). Scheme 1 outlines all the possible dissociation pathways for the Mn(II) complexes. […] The reactions of the released Mn(II) and L ligand with the exchanging L' and M' reactants are assumed to be very rapid.
The rate of dissociation can be expressed by the Equation (6), where kobs is the pseudo-first-order rate constant and [Mn(L)]t is the total concentration of the species containing [Mn(L)] complex. The [Mn(L)]t will differ slightly depending on the experimental conditions (in the presence of a large metal or ligand excess). As [Mn(L)]t = [Mn(L)] + [Mn(HL)] + [Mn(H2L)] + [Mn(L)M] + [Mn(L)(L')] + [Mn(HL)(L')] for reactions performed at high pH (in the pH range of 3.0–5.0 often applied in Cu(II) exchange reactions) will involve fewer protonated species while the acid catalyzed dissociation reactions run in the strongly acidic media (0.1–1.0 M acid concentration range) predominantly contain protonated species ([Mn(L)]t = [Mn(L)]+[Mn(HL)]+[Mn(H2L)]). (6) -d[MnL]t/dt=kobs[MnL]t
By taking into account the various complex species and the possible reaction pathways as well as the protonation and stability constants of the reactive intermediates, the following equation (Equation 7) can be derived to describe the rates of dissociation. […]

[6] = buffer, 25 °C and I = 0.15 M NaCl
[7] = ligand protonation constant, I = 0.15 M NaCl, 25 °C

SMILES	log K1H [1, 7]	log K2H [1, 7]	Σ log K2H ([1]; I = 0.15 M NaCl, 25 °C)	pMn [2]	log KML [2]	log K3H [1, 7]	log K4H [1, 7]	log KMLH [2]	other results
CN1CCN(C)CC1 [DMP, reference compound]	–	–	–	–	–	–	–	–	log K2H [1, 6]: 4.18
CC(C(=O)O)N1CCN(C(C)C(=O)O)CCN(C(C)C(=O)O)CCN(C(C)C(=O)O)CC1 (centres unmarked) [DOTMA]	–	–	–	–	–	–	–	–	log K1H [3]: 11.72; log K2H [3]: 9.06; log K3H [3]: 4.74; log K4H [3]: 5.59; log K5H [3]: 1.92; Σ log K2H ([3]; log K1H + log K2H): 20.78; log KML ([4]; Mn(II) complex, 1H-relaxometry): 18.37^[a]; log KMLH ([4]; Mn(II) complex, 1H-relaxometry): 4.56^[a]; pMn ([4]; pH = 7.4, cM = cL = 10^−5 M): 8.69
CN1CCNCC1 [NMP, N-methyl-piperazine, reference compound]	–	–	–	–	–	–	–	–	log K2H [1, 6]: 4.90
O=C(O)CNC(=O)CN1CCN(CC(=O)NCC(=O)O)Cc2cccc(n2)CN(CC(=O)NCC(=O)O)CC1 [PC3AM^Gly]	8.85 (1)	4.55 (1)	13.40	8.37	13.20 (1)	3.81 (1)	3.21 (1)	3.98 (1)	log K5H [1, 7]: 2.80 (1); log K6H [1, 7]: 1.38 (1); log KMHLH [2]: 3.14 (1); log KMLOH [2]: 10.67 (2); log KMH2LH [2]: 2.87 (1)
O=C(CN1CCN(CC(=O)N2CCCCC2)Cc2cccc(n2)CN(CC(=O)N2CCCCC2)CC1)N1CCCCC1 [PC3AM^Pip]	8.74 (1)	5.77 (2)	14.51	8.86	14.05 (2)	1.42 (9)	–	–	log KMLOH [2]: 11.63 (2)

More lines, main results first:

log K1H [1, 7]	log K2H [1, 7]	Σ log K2H ([1]; I = 0.15 M NaCl, 25 °C)	pMn [2]	log KML [2]	log K3H [1, 7]	log K4H [1, 7]	log KMLH [2]	SMILES	other results
9.40 (5)	6.28 (8)	15.68	7.32	11.69 (2)	–	–	–	NC(=O)CN1CCNCCN(CC(N)=O)CCN(CC(N)=O)CC1 [DO3AM^H]	–
7.31 (1)	6.07 (1)	13.38	8.60	11.96 (1)	–	–	–	NC(=O)CN1CCN(CC(N)=O)CCN(CC(N)=O)CCN(CC(N)=O)CC1 [DOTAM]	–
–	12.23 (3)	25.83	6.43	18.98 (1)	8.63 (5)	7.45 (4)	8.09 (1)	O=P(O)(O)CN1CCN(CP(=O)(O)O)CCN(CP(=O)(O)O)CCN(CP(=O)(O)O)CC1 [DOTP]	log K1H ([1]; ligand protonation constant by 1H- and 31P-NMR, I = 0.15 M NaCl, 25 °C): 13.6 (2)^[a]; log K5H [1, 7]: 5.84 (5); log K6H [1, 7]: 5.02 (5); log KMHLH [2]: 7.79 (1); log KMH2LH [2]: 6.74 (1)
8.74 (2)	7.58 (2)	16.32	8.57	13.88 (1)	3.99 (3)	2.39(3)	2.77 (5)	O=C(O)CN1CCOCCN(CC(=O)O)CCN(CC(=O)O)CC1 [ODO3A]	increase in the k1 value of the Mn(II) complex relative to DO3A [5]: 50 fold
